Assay results: patent EP2982368A1, “Small molecule compounds displacing focal adhesion core components” (Universität Konstanz, priority 2014, dated 2016)

How the values were obtained:
FAK = assay: Immunoblot of FAK and paxillin protein level and FAK Tyr397 phosphorylation; assay type: cell-based, mouse; details: serum-starved GFP-FAK MEFs, increasing concentrations, 30 min
Procedure: (§1) Image J was used to automatically quantify FAK-containing focal adhesions due to local maxima of fluorescence intensity in the GFP-channel (5 to 70 pixel). The number of cells was automatically counted in the Hoechst channel. To test reproducibility of the system 40 control wells were quantified wherein four positions for each well were imaged. […] GFP-FAK mouse embryonic fibroblasts were seeded on fibronectin and incubated for 1 h with the indicated concentrations of the small compounds, respectively. […] GFP-FAK mouse embryonic fibroblasts were seeded on fibronectin and serum-starved overnight. The indicated concentrations of Mb31 were applied for 30 min. Cells were lysed and analyzed for paxillin and FAK protein level as well as FAK Tyr397 phosphorylation. […] The purified kinase domain of FAK was incubated with increasing amounts of Mb31 for 1 h at 30°C together with poly-Glu-Tyr as a FAK substrate. […] Cell viability was assessed by MTT assay. […] Migration was recorded from cells that were cultured without serum (A), with serum (B) or with serum in the presence of 3 µM Mb31 (C). […] Mouse embryonic fibroblasts (MEFs) were transfected with talin-mCherry and talin dynamics analyzed in focal adhesions using fluorescence recovery after photobleaching (FRAP). […] (C) Wound closure was microscopically analyzed and evaluated using ImageJ software. […]

paxillin = molecular target: T1, paxillin (Mus musculus, UniProt Q8VI36); assay: Paxillin displacement in FAK-deficient MEFs (immunostaining, confocal microscopy); assay type: cell-based
T1 construct: endogenous in cells; host or cells: FAK-/- mouse embryonic fibroblasts
T1 sequence (Q8VI36 whole entry): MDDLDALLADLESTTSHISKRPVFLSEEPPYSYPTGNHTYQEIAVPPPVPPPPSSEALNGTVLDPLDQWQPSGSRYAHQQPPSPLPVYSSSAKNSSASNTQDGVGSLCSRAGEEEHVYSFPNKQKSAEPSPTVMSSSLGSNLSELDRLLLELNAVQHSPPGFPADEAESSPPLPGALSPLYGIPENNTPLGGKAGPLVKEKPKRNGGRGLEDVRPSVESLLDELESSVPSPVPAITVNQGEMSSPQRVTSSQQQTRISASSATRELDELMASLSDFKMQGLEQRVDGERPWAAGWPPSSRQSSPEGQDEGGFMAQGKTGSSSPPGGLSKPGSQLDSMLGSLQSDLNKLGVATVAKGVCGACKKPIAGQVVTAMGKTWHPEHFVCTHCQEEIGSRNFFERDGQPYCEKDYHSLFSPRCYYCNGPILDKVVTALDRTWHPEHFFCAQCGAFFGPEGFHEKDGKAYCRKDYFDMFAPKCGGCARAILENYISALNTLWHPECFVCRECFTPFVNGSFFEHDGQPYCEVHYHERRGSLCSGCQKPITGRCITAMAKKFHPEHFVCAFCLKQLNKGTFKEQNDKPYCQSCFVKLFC

NIH-v-Src fibroblasts = assay: EGF-stimulated cell migration of transformed cells; assay type: cell-based; details: 10 ng/ml EGF, tracked 6 h before and 6 h after addition
Procedure: Image J was used to automatically quantify FAK-containing focal adhesions due to local maxima of fluorescence intensity in the GFP-channel (5 to 70 pixel). The number of cells was automatically counted in the Hoechst channel. To test reproducibility of the system 40 control wells were quantified wherein four positions for each well were imaged. […] GFP-FAK mouse embryonic fibroblasts were seeded on fibronectin and incubated for 1 h with the indicated concentrations of the small compounds, respectively. […] GFP-FAK mouse embryonic fibroblasts were seeded on fibronectin and serum-starved overnight. The indicated concentrations of Mb31 were applied for 30 min. Cells were lysed and analyzed for paxillin and FAK protein level as well as FAK Tyr397 phosphorylation. […] The purified kinase domain of FAK was incubated with increasing amounts of Mb31 for 1 h at 30°C together with poly-Glu-Tyr as a FAK substrate. […] Serum-starved GFP-FAK mouse embryonic fibroblasts were stimulated with normal growth medium and incubated for 5 h with the indicated concentrations of the small molecule compounds, respectively. Cell viability was assessed by MTT assay. […] GFP-FAK MEFs were seeded on fibronectin and serum-starved overnight. Migration was stimulated by replacing the medium with normal growth medium. Migration of single cells was tracked for 8 h in 30 min intervals. Migration was recorded from cells that were cultured without serum (A), with serum (B) or with serum in the presence of 3 µM Mb31 (C). […] (A) GFP-FAK MEFs were seeded and serum-starved as in Figure 10. Cell migration was stimulated with normal growth medium and single cells were tracked for 5 h. […] Mouse embryonic fibroblasts (MEFs) were transfected with talin-mCherry and talin dynamics analyzed in focal adhesions using fluorescence recovery after photobleaching (FRAP). […] (C) Wound closure was microscopically analyzed and evaluated using ImageJ software.
To further determine whether Mb31 interferes with cell motility, GFP-FAK MEFs were serum-stimulated and migration was quantified on a single cell basis (Figures 11 and 12). […]

focal adhesions = assay: Focal adhesion dynamics by TIRF microscopy (mKate-vinculin); assay type: cell-based, mouse; details: 5 µM, 40 minutes
talin = assay: Talin-mCherry fluorescence recovery after photobleaching (FRAP); assay type: cell-based, mouse; details: 10 µM
Procedure: as §1

O=[N+]([O-])C=Cc1cc(Br)cs1 [FootLocker 1, 4-bromo-2-(2-nitrovinyl)thiophene]
Y397 phosphorylation of FAK (FAK): not influenced | degradation of FAK and paxillin (protein levels) (FAK): Neither for FAK nor for paxillin was any degradation observed | paxillin displacement in FAK knockout MEFs (paxillin; 30 min): efficiently displaced | concentration efficiently displacing paxillin (paxillin; FAK-/- MEF cells, 30 min, 1, 10, or 20 µM): > 1 µM | migration of EGF-stimulated cells (NIH-v-Src fibroblasts): efficiently inhibit the migration | nascent adhesion formation and mobility of mature adhesions (focal adhesions): nascent adhesion formation was absent and mature adhesions were immobile | talin-associated fluorescence recovery at bleached focal adhesions (talin): did not recover
